Reference: ChEMBL document CHEMBL1146315, “Synthesis and evaluation of unsaturated caprolactams as interleukin-1beta converting enzyme (ICE) inhibitors” (Bioorg Med Chem, 2007)

What was measured:
Caspase-1 = biological target: T1, Caspase-1 (Homo sapiens, UniProt P29466); assay: Inhibition of ICE
T1 sequence (P29466 whole entry): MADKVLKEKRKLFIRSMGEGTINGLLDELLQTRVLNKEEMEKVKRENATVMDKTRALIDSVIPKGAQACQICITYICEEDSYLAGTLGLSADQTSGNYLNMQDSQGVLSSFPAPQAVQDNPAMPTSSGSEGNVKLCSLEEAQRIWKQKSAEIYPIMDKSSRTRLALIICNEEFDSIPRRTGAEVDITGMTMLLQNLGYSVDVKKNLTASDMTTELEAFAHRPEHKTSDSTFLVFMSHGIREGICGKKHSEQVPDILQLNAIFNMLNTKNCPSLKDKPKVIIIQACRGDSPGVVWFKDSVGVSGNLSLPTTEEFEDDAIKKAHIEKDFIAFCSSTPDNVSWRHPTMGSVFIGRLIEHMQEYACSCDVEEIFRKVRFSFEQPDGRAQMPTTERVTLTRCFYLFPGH

Caspase-3 = biological target: T2, Caspase-3 (Homo sapiens, UniProt P42574); assay: Inhibition of caspase 3
T2 sequence (P42574 whole entry): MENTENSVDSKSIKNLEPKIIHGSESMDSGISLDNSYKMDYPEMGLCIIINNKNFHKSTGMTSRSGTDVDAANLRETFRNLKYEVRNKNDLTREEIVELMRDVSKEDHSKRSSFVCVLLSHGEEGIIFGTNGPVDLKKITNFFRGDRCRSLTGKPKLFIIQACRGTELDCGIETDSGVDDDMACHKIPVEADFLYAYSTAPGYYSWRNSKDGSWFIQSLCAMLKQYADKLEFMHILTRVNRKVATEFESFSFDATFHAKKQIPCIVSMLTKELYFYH

Caspase-8 = Caspase-8 (Homo sapiens, UniProt Q14790); assay: Inhibition of caspase 8
Chain of Caspase-8 (Q14790 217-374 limits assumed): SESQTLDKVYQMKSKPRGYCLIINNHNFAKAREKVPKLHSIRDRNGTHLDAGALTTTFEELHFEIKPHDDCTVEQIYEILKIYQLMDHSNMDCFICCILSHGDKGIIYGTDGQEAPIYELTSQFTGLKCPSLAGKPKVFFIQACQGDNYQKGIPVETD
Chain of Caspase-8 (Q14790 385-479 limits assumed): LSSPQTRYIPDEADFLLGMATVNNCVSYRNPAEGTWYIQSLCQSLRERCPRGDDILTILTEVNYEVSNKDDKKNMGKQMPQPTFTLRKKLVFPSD

THP-1 = assay: Inhibition of IL1-beta production in THP1 cells; assay type: functional, cell-based; details: Homo sapiens
[1] = Half life in Sprague-Dawley rat at 30 mg/kg, po; assay type: ADME, organism-based; set-up: dose 30 mg/kg, route oral; details: in vivo
[2] = Cmax in Sprague-Dawley rat at 30 mg/kg, po; assay type: ADME, organism-based; set-up: dose 30 mg/kg, route oral; details: in vivo
[3] = (§1) AUC (0 to infinity) in Sprague-Dawley rat at 30 mg/kg, po; assay type: ADME, organism-based, Plasma; set-up: time infinity, dose 30 mg/kg, route oral; details: Sprague-Dawley, plasma
Rattus norvegicus [4] = assay: (§2) Bioavailability in Sprague-Dawley rat at 30 mg/kg, po; assay type: ADME, organism-based; details: in vivo
[5] = Cmax in Sprague-Dawley rat at 30 mg/kg, iv; assay type: ADME, organism-based; set-up: dose 30 mg/kg, route intravenous; details: in vivo
Rattus norvegicus [6] = assay: AUC (0 to infinity) in Sprague-Dawley rat at 30 mg/kg, iv; assay type: ADME, organism-based, Plasma; set-up: time infinity, dose 30 mg/kg, route intravenous; details: in vivo
[7] = Half life in Sprague-Dawley rat at 30 mg/kg, iv; assay type: ADME, organism-based; set-up: dose 30 mg/kg, route intravenous; details: in vivo
Rattus norvegicus [8] = assay: as §1; assay type: ADME, organism-based, Plasma; set-up: time infinity, dose 30 mg/kg, route oral; details: in vivo
[9] = as §2; assay type: ADME, organism-based; details: Sprague-Dawley, in vivo

Structure (SMILES) | IC50 (Caspase-1) [µM] | IC50 (Caspase-3) [µM] | IC50 (Caspase-8) [µM] | IC50 (THP-1) [µM] | other results
O=C(CN1CC=CC[C@H](NC(=O)c2nccc3ccccc23)C1=O)N[C@H]1CC(=O)OC1O (some centres undefined) | 0.027 | > 10 | 2.93 | 0.586 | 
CCOC1OC(=O)C[C@@H]1NC(=O)[C@H](C)N1CC=CC[C@H](NC(=O)c2ccc3ccccc3c2)C1=O (some centres undefined) |  |  |  |  | half-life [1]: 5.1 h; Cmax [2]: 720 ng/mL; AUC(0-inf) [3]: 4530 ng·h/mL
O=C(CN1CC=CC[C@H](NC(=O)c2cc3ccccc3s2)C1=O)N[C@H]1CC(=O)OC1O (some centres undefined) | 0.02 | > 10 | 1.45 | 0.712 | 
O=C(CN1CC=CC[C@H](NC(=O)c2cccc(Cl)c2)C1=O)N[C@H]1CC(=O)OC1O (some centres undefined) | 0.029 | > 10 | 1.18 | 0.383 | 
COc1cccc(C(=O)N[C@H]2CC=CCN(CC(=O)N[C@H]3CC(=O)OC3O)C2=O)c1 (some centres undefined) | 0.053 | > 10 | 1.23 | 1.23 | 
CCOC1OC(=O)C[C@@H]1NC(=O)CN1CC(CNC(=O)c2ccc(OC)cc2)=CC[C@H](NC(=O)c2ccc3ccccc3c2)C1=O (some centres undefined) |  |  |  |  | half-life [1]: 7.1 h; Cmax [2]: 9 ng/mL; AUC(0-inf) [3]: 30 ng·h/mL
O=C(CN1CC=CC[C@H](NC(=O)c2cc(Cl)ccc2Cl)C1=O)N[C@H]1CC(=O)OC1O (some centres undefined) | 0.015 | > 10 | 0.554 | 0.071 | 
CC1=CC[C@H](NC(=O)c2ccc3ccccc3c2)C(=O)N(CC(=O)N[C@H]2CC(=O)OC2O)C1 (some centres undefined) | 0.019 | > 10 | 2.69 | 0.153 | 
CCOC1OC(=O)C[C@@H]1NC(=O)CN1CC=CC[C@H](NC(=O)c2ccc3ccccc3c2)C1=O (some centres undefined) |  |  |  |  | half-life [1]: 3.4 h; bioavailability [9]: > 90%; Cmax [2]: 9360 ng/mL; AUC(0-inf) [3]: 21000 ng·h/mL
O=C(CN1CC=CC[C@H](NC(=O)c2ccccc2)C1=O)N[C@H]1CC(=O)OC1O (some centres undefined) | 0.168 | > 10 | 4.2 | 1.08 | 
O=C(CN1CC/C=C\C[C@H](NC(=O)c2nccc3ccccc23)C1=O)N[C@H]1CC(=O)OC1O (some centres undefined) | 0.077 |  |  |  | 
O=C(CN1CC(CO)=CC[C@H](NC(=O)c2ccc3ccccc3c2)C1=O)N[C@H]1CC(=O)OC1O (some centres undefined) | 0.022 | > 10 | 2.11 | 0.543 | 

More lines, in order of falling IC50 (Caspase-1), values ahead:

IC50 (Caspase-1) [µM] | IC50 (Caspase-3) [µM] | IC50 (Caspase-8) [µM] | IC50 (THP-1) [µM] | Structure (SMILES) | other results
0.014 | > 10 | 2.16 | 0.1 | O=C(CN1CC=CC[C@H](NC(=O)c2ccc3ccccc3c2)C1=O)N[C@H]1CC(=O)OC1O (some centres undefined) | half-life [1]: 1.3 h; F (Rattus norvegicus [4]): 2%; Cmax [5]: 6790 ng/mL; Cmax [2]: 264 ng/mL; AUC (Rattus norvegicus [6]): 1970 ng·h/mL; half-life [7]: 0.2 h; AUC (Rattus norvegicus [8]): 320 ng·h/mL
0.013 | > 10 | 0.537 | 0.871 | C[C@H](C(=O)N[C@H]1CC(=O)OC1O)N1CC=CC[C@H](NC(=O)c2ccc3ccccc3c2)C1=O (some centres undefined) | 
0.011 | > 10 | 1.96 | 0.554 | O=C(CN1CC=CC[C@H](NC(=O)c2cccc(C(F)(F)F)c2)C1=O)N[C@H]1CC(=O)OC1O (some centres undefined) | 
0.008 | > 10 | 1.61 | 1.28 | O=C(CN1CC(CSCc2ccccc2)=CC[C@H](NC(=O)c2ccc3ccccc3c2)C1=O)N[C@H]1CC(=O)OC1O (some centres undefined) | 
0.007 | > 10 | 10 | 0.232 | O=C(CN1CC(CNCc2ccccc2)=CC[C@H](NC(=O)c2ccc3ccccc3c2)C1=O)N[C@H]1CC(=O)OC1O (some centres undefined) | 
0.004 |  |  |  | O=C[C@H](CC(=O)O)NC(=O)[C@@H]1CCCN2C(=O)CC[C@H](NC(=O)c3nccc4ccccc34)C(=O)N12 [VRT-18858] | 
0.004 |  |  | 0.188 | O=C[C@H](CC(=O)O)NC(=O)[C@@H]1CC[C@@H]2C/C=C\C[C@H](NC(=O)c3nccc4ccccc34)C(=O)N21 | 
0.003 | 6.81 | 0.109 | 0.326 | O=C(CN1CC(CNS(=O)(=O)c2ccccc2)=CC[C@H](NC(=O)c2ccc3ccccc3c2)C1=O)N[C@H]1CC(=O)OC1O (some centres undefined) | 
0.003 |  |  | 0.182 | O=C[C@H](CC(=O)O)NC(=O)[C@@H]1COC[C@@H]2C/C=C\C[C@H](NC(=O)c3nccc4ccccc34)C(=O)N21 | 
0.002 | 1.7 | 1.08 | 0.466 | O=C(CN1CC(CNC(=O)c2ccccc2)=CC[C@H](NC(=O)c2ccc3ccccc3c2)C1=O)N[C@H]1CC(=O)OC1O (some centres undefined) | 
0.002 | 3.37 | 0.887 | 1.34 | COc1ccccc1C(=O)NCC1=CC[C@H](NC(=O)c2ccc3ccccc3c2)C(=O)N(CC(=O)N[C@H]2CC(=O)OC2O)C1 (some centres undefined) | 
0.001 | 1.13 | 0.471 | 0.095 | COc1ccc(C(=O)NCC2=CC[C@H](NC(=O)c3ccc4ccccc4c3)C(=O)N(CC(=O)N[C@H]3CC(=O)OC3O)C2)cc1 (some centres undefined) | 
0.001 | 1.08 | 0.448 | 0.243 | COc1cccc(C(=O)NCC2=CC[C@H](NC(=O)c3ccc4ccccc4c3)C(=O)N(CC(=O)N[C@H]3CC(=O)OC3O)C2)c1 (some centres undefined) | 
0.001 | 7.51 | 0.162 | 0.036 | C[C@@H](C(=O)N[C@H]1CC(=O)OC1O)N1CC=CC[C@H](NC(=O)c2ccc3ccccc3c2)C1=O (some centres undefined) | 
